Test results published in patent publication US20080294071A1, “Assay Method” (priority 2004, published 2008).

Tests used:
[1] = clinical literature; cited from earlier work
rats [2] = assay: Beam walking test; type: in vivo, Male Sprague Dawley rats
Protocol: (§1) Male Sprague Dawley rats 200-300 g (Charles River, Margate, U.K.) were housed in group of five per cage under a 12 h light/dark cycle with food and water available ad libitum. Each experiment was carried out with groups of at minimum 7 rats. All procedures in this study were performed in accordance with the Home Office Animals (Scientific Procedures) Act 1986 and accordingly with our Project License, after the experiment, animals were sacrificed by schedule 1 method.
The Beam walking apparatus consists of a 1.5 m long beam with a 2.5×2.5 cm square cross section, elevated 75 cm above the floor. The test was performed in dim light conditions (18 lux). A light source (520 lux) was placed at the start-end of the beam while a dark box at the other side (Feeney D M et al, Amphetamine, Haloperidol, and experience interact to affect rate of recovery after motor cortex injury, Science 217, 1982). Rats were habituated to the dim light condition for at least 1 hour before the beginning of the training sessions. Rats were trained to cross the beam over 2 days, twice a day. The first day, rodents were trained to cross starting from last quarter and half of the beam until the dark box, in the first and second session, respectively. The following day rodents were trained to cross the entire length of the beam twice. At least 2 hours were left between each daily session. On the day of test a baseline recording was registered before compound administration and rats were selected based on their ability to cross the beam with no major impairments. Therefore, only rodents that crossed the beam in less than 10 seconds and showing two or less foot slips were used for the assessment of drug-induced motor impairments. Then rats were tested for their ability to cross the beam at various time points after drug injection. The time taken to cross and the number of foot slips produced while a rat was crossing the beam were counted. […] No movement or freezing behaviours were also scored with the maximum value.
(§2) In the locomotor activity task, total counts are the sum of horizontal and vertical movements (photo beam breaks) in 30 minutes recording. For PCP vertical and horizontal activity are analysed separately. Data were expressed as the arithmetic mean ±SEM and analysed by ANOVA. In the beam walking test, the time to cross the beam (seconds) and the number of foot slips were expressed as mean ±SEM and analysed by ANOVA and Mann Whitney U test, respectively.

rats [3] = assay: Locomotor activity test; type: in vivo, Male Sprague Dawley rats
Protocol: as §1
The spontaneous locomotor activity of rats in a novel environment was monitored for 30 min in a 35×20 cm Perspex chamber. The cage was equipped with two series photocells located at 2 and 15 cm above the floor (San Diego Instruments, CA, USA). To measure drug-induced decrease locomotion such as morphine and gabapentin, at a pre-defined time post drug administration, each animal was placed in the centre of the cage. To measure drug-induced increase in locomotion such as phencyclidine (PCP) rats were placed in the cage at least 30 min before recording. total activity (ambulation and rearing) was monitored every 5 min for 30 min.
as §2

[4] = 1 and 10 mg/kg ip, 1 hr post injection

SMILES: c1ccc(C2(N3CCCCC3)CCCCC2)cc1 [PCP, phencyclidine]
- adverse events in humans [1]: induce ataxia
- number of foot slips, effect (rats [2]; 1 mg/kg ip, 2 hours post dose, p<0.05): slight but significant increase
- rodents that could not be placed on the beam (lack of paw coordination) (rats [2]; 10 mg/kg ip, 30 min post dose): 100%
- rodents that could not be placed on the beam (lack of paw coordination) (rats [2]; 10 mg/kg ip, 1 hour post dose): 100%
- animals that did cross the beam (rats [2]; 10 mg/kg ip, 2 hours post dose): 80%
- number of foot slips (rats [2]; 10 mg/kg ip, 2 hours post dose, animals that crossed): ≥ 5
- time taken to cross the beam vs controls (rats [2]; 10 mg/kg ip, 2 hours post dose, p<0.01): significantly different from controls
- recovery (rats [2]; 10 mg/kg ip, 4 hrs post dose): almost all rats recovered
- time taken to cross the beam, effect across doses (rats [2]; 0.1-1-10 mg/kg ip): increased the time taken to cross the beam at the higher dose only
- number of foot slips, effect (rats [2]; lower dose (0.1 mg/kg ip)): no effect
- observed signs (rats [3]; 10 mg/kg ip): signs of ataxia
- vertical activity (rearing) (rats [3]; 10 mg/kg, standard protocol for drug-induced decrease in movement, vehicle 186±17, p<0.01, data not shown): 30±9
- total activity (vertical+horizontal) vs vehicle-treated group (rats [3]; [4]): did not change significantly
- vertical movement (rats [3]; [4]): only the lower dose significantly increased the vertical movement
- horizontal activity (rats [3]; 1 and 10 mg/kg ip, 1 hr post injection, p<0.05): increased the horizontal activity in a dose dependent manner

SMILES: NCC1(CC(=O)O)CCCCC1 [Gabapentin]
- adverse events in humans [1]: dizziness and somnolence
- number of foot slips, effect (rats [2]; 100 mg/kg in rats): robust increase
- time to cross the beam, effect (rats [2]; 30, 100 and 300 mg/kg PO, up to 6 hrs, p<0.05): only at 3 and 4 hour post administration the highest dose significantly increase the time to cross
- duration of effect on foot slips (lasting till) (rats [2]; PO): 4 h
- time of peak effect on foot slips (rats [2]; PO): 2 h
- lowest dose increasing number of foot slips (rats [2]; PO, 30, 100 and 300 mg/kg tested, dose dependent): 100 mg/kg
- rats that fell off the beam (rats [2]; PO, 2 hours post dose): 25%
- rats that fell off the beam (rats [2]; PO, 3 hours post dose): 25%
- number of foot slips (rats [2]; PO, dose not stated, 1 hour post dose, water treated 0.6±0.4): 1.5±0.5
- number of foot slips (peak effect) (rats [2]; PO, dose not stated, 2 hours post dose, vehicle 0.2±0.2, p<0.01): 2.9±0.5
- decrease in locomotor activity (of vehicle-treated group) (rats [3]; 100 mg/kg PO (highest dose), one hour post dose): 27%
- locomotor activity, effect (rats [3]; 100 mg/kg in rats): small (albeit statistically significant) decrease
- locomotor activity, effect across doses (rats [3]; 10, 30 and 100 mg/kg PO, one hour post dose): decreased significantly the locomotor activity of rats at the highest dose only
- total counts in 30 min (rats [3]; gabapentin highest dose 100 mg/kg PO, one hour post dose): 262±25 counts

SMILES: CN1CC[C@]23c4c5ccc(O)c4O[C@H]2[C@@H](O)C=C[C@H]3[C@H]1C5.O=S(=O)(O)O [Morphine sulphate]
- adverse events in humans [1]: somnolence, sedation and addiction
- locomotion in the beam walking (rats [2]; 3 mg/kg SC, any time point (30 min, 1, 2, 3 h)): did not modify the locomotion
- time to cross the beam (rats [2]; 10 mg/kg SC, 30 min post dose, controls 4.1±0.7, significant): 12.6 ± 0.7 s
- number of foot slips (rats [2]; 10 mg/kg SC, 30 minutes post dose, vehicle 0.1±0.1, not statistically different): 1.0±0.6
- number of foot slips (rats [2]; 10 mg/kg SC, 1 hr post dose, vehicle 0.1±0.1, not statistically different): 1.0±0.6
- rats falling off the beam (rats [2]; 3 and 10 mg/kg SC): No rats fell off the beam
- MED (minimal effective dose) in beam walking (rats [2]; SC): 10 mg/kg
- total counts (horizontal + vertical) in 30 min (rats [3]; 10 mg/kg SC, 30 min post dose, vehicle 424±23, p<0.01): 28±6 counts
- total counts in 30 min (rats [3]; morphine 3 mg/kg, comparator in gabapentin study): 138±26 counts
